# Laboratory results reported in US9931328B2, “Topical retinoid compositions” (DR. REDDY'S LABORATORIES, LTD., priority 2015, dated 2018).
# Key:
# [1] = Excipients compatibility study with tazarotene; assay type: physicochemical
# Protocol: Excipient compatibility study for tazarotene was carried out with various pharmaceutically acceptable excipients. The tazarotene was tested in a set of compatibility screening studies with the excipients in closed vials containing tazarotene. The excipients physical mixture were incubated in ovens with and without moisture at 60° C. or 40° C./75% RH for 4 weeks.
# [2] = Multiple dose bioavailability study versus TAZORAC 0.1% cream; assay type: in vivo, healthy male subjects; details: after topical application of test or reference product
# Protocol: The study was a single-center, randomized, multiple dose, laboratory-blinded, open-label, 3-arm, parallel design in healthy male subjects. The following investigational products were to be administered: 1) Test product: composition of example 1 (tazarotene 0.1%) and 2) reference: TAZORAC cream 0.1%. Following were treatment arms: 1) Treatment 1: Test product applied twice daily, in the morning and evening, 12 hours apart; 2) Treatment 2: Test product applied once daily, in the morning; and 3) Treatment 3: Reference product applied once daily, in the morning. For each study arm (n=16), approximately 5 g of the Test or Reference product was to be applied to the subjects face, neck, shoulders, upper chest and upper back (total approximately equivalent to 15% body surface area (BSA)) over 14 consecutive days (Days 1 to 14). Blood sample were collected time to time as per the schedule of the study.
smiles,measurement,setting,value
"CCOC(=O)c1ccc(C#Cc2ccc3c(c2)C(C)(C)CCS3)nc1 [tazarotene, Tazarotene]",excipient compatibility,"[1]; with benzyl alcohol, lactic acid, polysorbate 80",incompatible
same,excipient compatibility,"[1]; with excipients of examples 1, 2, 3 (carbomer type A and B, cocobetaine, sodium lauryl sarcosinate, stearyl alcohol, cetyl alcohol, glycerine, vitamin E TPGS, gluconolactone, BHT, parabens)",compatible
same,concentrations of the parent compound detected in plasma samples,[2],Very low concentrations
